Measurements: patent US6046171A, “6,11-bridged erythromycin derivatives” (priority 1998, dated 2000)
≈ marks a conversion by molar mass, not a printed value.

Assays:
Type in all cases: cell-based
[1] = test system: Staphylococcus aureus ATCC 6538P; test: in vitro antibacterial MIC, agar dilution (BHI agar, Steers replicator); conditions: organism code AA; 35-37° C., 20 to 24 hours; unit assumed
Procedure: (§1) Representative compounds of the present invention were assayed in vitro for antibacterial activity as follows: Twelve petri dishes containing successive aqueous dilutions of the test compound mixed with 10 mL of sterilized Brain Heart Infusion (BHI) agar (Difco 0418-01-5) were prepared. Each plate was inoculated with 1:100 (or 1:10 for slow-growing strains, such as Micrococcus and Streptococcus) dilutions of up to 32 different microorganisms, using a Steers replicator block. […] In addition, a control plate, using BHI agar containing no test compound, was prepared and incubated at the beginning and end of each test.
(§2) An additional plate containing a compound having known susceptibility patterns for the organisms being tested and belonging to the same antibiotic class as the test compound was also prepared and incubated as a further control, as well as to provide test-to-test comparability.
(§3) After incubation, each plate was visually inspected. The minimum inhibitory concentration (MIC) was defined as the lowest concentration of drug yielding no growth, a slight haze, or sparsely isolated colonies on the inoculum spot as compared to the growth control.

[2] = test system: Staphylococcus aureus CMX 553; test: in vitro antibacterial MIC, agar dilution; conditions: organism code FF; 35-37° C., 20 to 24 hours; unit assumed
Procedure: as §1, §2, §3

[3] = test system: Escherichia coli JUHL; test: in vitro antibacterial MIC, agar dilution; conditions: organism code QQ; 35-37° C., 20 to 24 hours; unit assumed
Procedure: as §1, §2, §3

[4] = test system: Nocardia Asteroides ATCC9970; test: in vitro antibacterial MIC, agar dilution; conditions: organism code VV; 35-37° C., 20 to 24 hours; unit assumed
Procedure: as §1, §2, §3

[5] = test system: Enterococcus faecium ATCC 8Q43; test: in vitro antibacterial MIC, agar dilution; conditions: organism code II; 35-37° C., 20 to 24 hours; unit assumed
Procedure: as §1, §2, §3

[6] = test system: Staphylococcus aureus A-5278; test: in vitro antibacterial MIC, agar dilution; conditions: organism code CC; 35-37° C., 20 to 24 hours; unit assumed
Procedure: as §1, §2, §3

[7] = test system: Micrococcus luteus ATCC 4698; test: in vitro antibacterial MIC, agar dilution; conditions: organism code PP; 35-37° C., 20 to 24 hours; unit assumed
Procedure: as §1, §2, §3

[8] = test system: Micrococcus luteus ATCC 9341; test: in vitro antibacterial MIC, agar dilution; conditions: organism code OO; 35-37° C., 20 to 24 hours; unit assumed
Procedure: as §1, §2, §3

[9] = test system: Staphylococcus aureus 1775; test: in vitro antibacterial MIC, agar dilution; conditions: organism code GG; 35-37° C., 20 to 24 hours; unit assumed
Procedure: as §1, §2, §3

[10] = test system: Staphylococcus epidermidis 3519; test: in vitro antibacterial MIC, agar dilution; conditions: organism code HH; 35-37° C., 20 to 24 hours; unit assumed
Procedure: as §1, §2, §3

[11] = test system: Escherichia coli DC-2; test: in vitro antibacterial MIC, agar dilution; conditions: organism code SS; 35-37° C., 20 to 24 hours; unit assumed
Procedure: as §1, §2, §3

[12] = test system: Escherichia coli SS; test: in vitro antibacterial MIC, agar dilution; conditions: organism code RR; 35-37° C., 20 to 24 hours; unit assumed
Procedure: as §1, §2, §3

[13] = test system: Haemophilis Influenzae DILL AMP R; test: in vitro antibacterial MIC, agar dilution; conditions: organism code WW; 35-37° C., 20 to 24 hours; unit assumed
Procedure: as §1, §2, §3

[14] = test system: Mycobacterium smegmatis ATCC 114; test: in vitro antibacterial MIC, agar dilution; conditions: organism code UU; 35-37° C., 20 to 24 hours; unit assumed
Procedure: as §1, §2, §3

[15] = test system: Streptococcus Pheumoniae GYR 1171; test: in vitro antibacterial MIC, agar dilution; conditions: organism code YY; 35-37° C., 20 to 24 hours; unit assumed
Procedure: as §1, §2, §3

[16] = test system: Streptococcus pyogenes PIU 2548; test: in vitro antibacterial MIC, agar dilution; conditions: organism code NN; 35-37° C., 20 to 24 hours; unit assumed
Procedure: as §1, §2, §3

[17] = test system: Streptococcus bovis A-5169; test: in vitro antibacterial MIC, agar dilution; conditions: organism code JJ; 35-37° C., 20 to 24 hours; unit assumed
Procedure: as §1, §2, §3

[18] = test system: Streptococcus agalactiae CMX 508; test: in vitro antibacterial MIC, agar dilution; conditions: organism code KK; 35-37° C., 20 to 24 hours; unit assumed
Procedure: as §1, §2, §3

[19] = test system: Streptococcus pyogenes 930; test: in vitro antibacterial MIC, agar dilution; conditions: organism code MM; 35-37° C., 20 to 24 hours; unit assumed
Procedure: as §1, §2, §3

[20] = test system: Staphylococcus aureus A5177; test: in vitro antibacterial MIC, agar dilution; conditions: organism code BB; 35-37° C., 20 to 24 hours; unit assumed
Procedure: as §1, §2, §3

[21] = test system: Streptococcus Pheumoniae ATCC6303; test: in vitro antibacterial MIC, agar dilution; conditions: organism code XX; 35-37° C., 20 to 24 hours; unit assumed
Procedure: as §1, §2, §3

[22] = test system: Staphylococcus aureus CMX 642A; test: in vitro antibacterial MIC, agar dilution; conditions: organism code DD; 35-37° C., 20 to 24 hours; unit assumed
Procedure: as §1, §2, §3

[23] = test system: Staphylococcus aureus NCTC10649M; test: in vitro antibacterial MIC, agar dilution; conditions: organism code EE; 35-37° C., 20 to 24 hours; unit assumed
Procedure: as §1, §2, §3

[24] = test system: Streptococcus Pheumoniae 5649; test: in vitro antibacterial MIC, agar dilution; conditions: organism code ZZA; 35-37° C., 20 to 24 hours; unit assumed
Procedure: as §1, §2, §3

[25] = test system: Streptococcus pyogenes EES61; test: in vitro antibacterial MIC, agar dilution; conditions: organism code LL; 35-37° C., 20 to 24 hours; unit assumed
Procedure: as §1, §2, §3

[26] = test system: Streptococcus Pheumoniae 5979; test: in vitro antibacterial MIC, agar dilution; conditions: organism code ZZ; 35-37° C., 20 to 24 hours; unit assumed
Procedure: as §1, §2, §3

[27] = test system: Candida albicans CCH 442; test: in vitro MIC, agar dilution; conditions: organism code TT; 35-37° C., 20 to 24 hours; unit assumed
Procedure: as §1, §2, §3

For CC[C@H]1OC(=O)[C@H](C)[C@@H](O[C@H]2C[C@@](C)(OC)[C@@H](O)[C@H](C)O2)[C@H](C)[C@@H](O[C@@H]2O[C@H](C)C[C@H](N(C)C)[C@H]2O)[C@@]2(C)C[C@@H](C)C(=O)[C@H](C)[C@H]3N(CC=CCO2)C(=O)O[C@]13C [Example 14], the MIC [1] was 0.2 µg/mL (≈ 0.247 µM), the MIC [2] was 0.2 µg/mL (≈ 0.247 µM) and the MIC [3] was 50 µg/mL (≈ 61.7 µM). For the same compound, the MIC [4] was 0.05 µg/mL (≈ 0.0617 µM), the MIC [5] was 0.1 µg/mL (≈ 0.123 µM) and the MIC [6] was greater than 100 µg/mL. The MIC [7] was 0.39 µg/mL (≈ 0.481 µM), the MIC [8] was 0.05 µg/mL (≈ 0.0617 µM) and the MIC [9] was greater than 100 µg/mL. The MIC [10] was 0.2 µg/mL (≈ 0.247 µM), the MIC [11] was greater than 100 µg/mL and the MIC [12] was 0.78 µg/mL (≈ 0.962 µM). For the same compound, the MIC [13] was 8 µg/mL (≈ 9.86 µM), the MIC [14] was 0.78 µg/mL (≈ 0.962 µM) and the MIC [15] was 0.03 µg/mL (≈ 0.037 µM). For the same compound, the MIC [16] was 6.2 µg/mL (≈ 7.64 µM), the MIC [17] was 0.05 µg/mL (≈ 0.0617 µM) and the MIC [18] was 0.05 µg/mL (≈ 0.0617 µM). It also gave an MIC [19] greater than 100 µg/mL, an MIC [20] of 3.1 µg/mL (≈ 3.82 µM) and an MIC [21] of 0.03 µg/mL (≈ 0.037 µM). It also gave an MIC [22] of 0.2 µg/mL (≈ 0.247 µM), an MIC [23] of 0.39 µg/mL (≈ 0.481 µM) and an MIC [24] of 16 µg/mL (≈ 19.7 µM). The MIC [25] was 0.05 µg/mL (≈ 0.0617 µM), the MIC [26] was greater than 128 µg/mL and the MIC [27] was greater than 100 µg/mL.

For CC[C@H]1OC(=O)[C@H](C)[C@@H](O[C@H]2C[C@@](C)(OC)[C@@H](O)[C@H](C)O2)[C@H](C)[C@@H](O[C@@H]2O[C@H](C)C[C@H](N(C)C)[C@H]2O)[C@@]2(C)C[C@@H](C)C(=O)[C@H](C)[C@H]3N(CC(=O)CC=CCO2)C(=O)O[C@]13C [Example 20], the MIC [1] was 3.1 µg/mL (≈ 3.63 µM), the MIC [2] was 3.1 µg/mL (≈ 3.63 µM) and the MIC [3] was greater than 100 µg/mL. The MIC [4] was 0.2 µg/mL (≈ 0.234 µM), the MIC [5] was 0.2 µg/mL (≈ 0.234 µM) and the MIC [6] was greater than 100 µg/mL. For the same compound, the MIC [7] was 0.78 µg/mL (≈ 0.914 µM), the MIC [8] was 0.2 µg/mL (≈ 0.234 µM) and the MIC [9] was greater than 100 µg/mL. For the same compound, the MIC [10] was 3.1 µg/mL (≈ 3.63 µM), the MIC [11] was greater than 100 µg/mL and the MIC [12] was 3.1 µg/mL (≈ 3.63 µM). It also gave an MIC [13] of 8 µg/mL (≈ 9.38 µM), an MIC [14] of 0.39 µg/mL (≈ 0.457 µM) and an MIC [15] of 0.25 µg/mL (≈ 0.293 µM). For the same compound, the MIC [16] was 25 µg/mL (≈ 29.3 µM), the MIC [17] was 0.2 µg/mL (≈ 0.234 µM) and the MIC [18] was 0.39 µg/mL (≈ 0.457 µM). It also gave an MIC [19] of 100 µg/mL (≈ 117 µM), an MIC [20] of 12.5 µg/mL (≈ 14.7 µM) and an MIC [21] of 0.25 µg/mL (≈ 0.293 µM). For the same compound, the MIC [22] was 3.1 µg/mL (≈ 3.63 µM), the MIC [23] was 3.1 µg/mL (≈ 3.63 µM) and the MIC [24] was 1 µg/mL (≈ 1.17 µM). For the same compound, the MIC [25] was 0.2 µg/mL (≈ 0.234 µM), the MIC [26] was 128 µg/mL (≈ 150 µM) and the MIC [27] was greater than 100 µg/mL.

Compound CC[C@H]1OC(=O)[C@H](C)[C@@H](O[C@H]2C[C@@](C)(OC)[C@@H](O)[C@H](C)O2)[C@H](C)[C@@H](O[C@@H]2O[C@H](C)C[C@H](N(C)C)[C@H]2O)[C@](C)(O)C[C@@H](C)C(=O)[C@H](C)[C@@H](O)[C@]1(C)O [Ery. A, Erythromycin A, reference compound] has an MIC [1] of 0.2 µg/mL (≈ 0.273 µM), an MIC [2] of 0.39 µg/mL (≈ 0.531 µM) and an MIC [3] greater than 100 µg/mL. For the same compound, the MIC [4] was 0.1 µg/mL (≈ 0.136 µM), the MIC [5] was 0.05 µg/mL (≈ 0.0681 µM) and the MIC [6] was greater than 100 µg/mL. The MIC [7] was 0.2 µg/mL (≈ 0.273 µM), the MIC [8] was 0.05 µg/mL (≈ 0.0681 µM) and the MIC [9] was greater than 100 µg/mL. For the same compound, the MIC [10] was 0.39 µg/mL (≈ 0.531 µM), the MIC [11] was greater than 100 µg/mL and the MIC [12] was 0.78 µg/mL (≈ 1.06 µM). For the same compound, the MIC [13] was 4 µg/mL (≈ 5.45 µM), the MIC [14] was 3.1 µg/mL (≈ 4.22 µM) and the MIC [15] was 0.06 µg/mL (≈ 0.0818 µM). For the same compound, the MIC [16] was 6.2 µg/mL (≈ 8.45 µM), the MIC [17] was 0.02 µg/mL (≈ 0.0273 µM) and the MIC [18] was 0.05 µg/mL (≈ 0.0681 µM). The MIC [19] was greater than 100 µg/mL, the MIC [20] was 3.1 µg/mL (≈ 4.22 µM) and the MIC [21] was 0.06 µg/mL (≈ 0.0818 µM). For the same compound, the MIC [22] was 0.39 µg/mL (≈ 0.531 µM), the MIC [23] was 0.39 µg/mL (≈ 0.531 µM) and the MIC [24] was 16 µg/mL (≈ 21.8 µM). The MIC [25] was 0.05 µg/mL (≈ 0.0681 µM) and the MIC [27] was greater than 100 µg/mL.
